From patent publication US20240390311A1 (priority 2020, published 2024)
Read-outs that look alike come from different tables or passages of the source.

What was measured:
[1] = tested on: MHV-1; type: in vivo, A/J mice; settings: for body weight loss / death rate / disease (illness) scores / lung coefficient index: Example 2, in water: GABA 2 mg/mL, homotaurine 0.25 mg/mL, baclofen 0.25 mg/mL, vs untreated controls
[2] = tested on: autoreactive Th1 and Th17 cells; settings: cited from earlier work; for disease progression in mouse models of type 1 diabetes, multiple sclerosis, and rheumatoid arthritis: administration of GABA or homotaurine; for CD4+ and CD8+ Treg responses / autoreactive Th1 and Th17 cells: in vivo administration
[3] = tested on: SARS-CoV-2; type: in vivo, K18-hACE2 mice; settings: for mice surviving on days 7-8 post-infection: control 20%
[4] = tested on: SARS-CoV-2; settings: NIH (NCATS) screen; cited from earlier work
[5] = cited from earlier work
[6] = tested on: SARS-CoV-2; type: in vivo, K18-hACE2 mice
[7] = hundreds of epilepsy patients, long-term studies
[8] = GABA 2 mg/mL treated vs untreated infected mice
[9] = GABA 2 mg/mL vs untreated infected mice, p<0.001
[10] = GABA-treated vs SC group, no statistically significant difference

Compound: NCCCS(=O)(=O)O [homotaurine]
- body weight loss [1]: significantly reduced
- death rate [1]: significantly reduced
- disease (illness) scores [1]: significantly reduced
- lung coefficient index [1]: significantly reduced
- disease progression in mouse models of type 1 diabetes, multiple sclerosis, and rheumatoid arthritis [2]: inhibits
- CD4+ and CD8+ Treg responses [2]: promoting
- autoreactive Th1 and Th17 cells [2]: inhibits

Compound: NCCCC(=O)O [GABA, gamma-aminobutyric acid]
- mice survived at end of study on day 7 ([3]; Example 4, GABA 2 mg/mL started 2 days post-infection, control 22%, p=0.004): 88%
- longitudinal mean illness scores ([3]; Example 4, GABA 2 mg/mL started 2 days post-infection, overall p=0.002): reduced
- mice that died during the 7-day observation period ([3]; Trial 1, GABA 0.2 mg/mL in water, control 3/5 died): none
- mice surviving on days 7-8 post-infection ([3]; Trial 2, GABA 0.2 mg/mL, p=0.004): 80%
- mice surviving on days 7-8 post-infection ([3]; Trial 2, GABA 2 mg/mL, p=0.018): 80%
- illness scores ([3]; Trial 2, GABA 0.2 or 2.0 mg/mL in water from infection, vs control): significantly reduced
- SARS-CoV-2 interaction with its cellular receptor [4]: did not interfere
- SARS-CoV-2 replication [4]: did not interfere
- body weight loss [1]: significantly reduced
- death rate [1]: significantly reduced
- disease (illness) scores [1]: significantly reduced
- highest average illness score ([1]; GABA 20 mg/ml immediately after inoculation, day 7 post-infection, scale 0-5): 1.6
- body weight at 14 days post-infection, of starting weight ([1]; GABA 20 mg/ml starting 3 days post-infection): 90%
- maximum mean illness score ([1]; GABA 20 mg/ml starting 3 days post-infection, scale 0-5): 2.5
- mice that died ([1]; GABA 20 mg/ml starting 3 days post-infection, up to 14 days (death on day 9)): 1/9
- average body weight below starting weight 14 days post-infection ([1]; GABA 20 mg/ml starting immediately after MHV-1 inoculation): 7%
- mice that died ([1]; GABA 20 mg/ml starting immediately after MHV-1 inoculation, up to 14 days, control 3/9 survived): none
- disease progression in mouse models of type 1 diabetes, multiple sclerosis, and rheumatoid arthritis [2]: inhibits
- CD4+ and CD8+ Treg responses [2]: promoting
- autoreactive Th1 and Th17 cells [2]: inhibits
- ability to reduce seizures [5, 7]: no clinical benefit
- adverse effects [5, 7]: no adverse effects
- safety ([5]; phase Ib GABA oral dosing study): safe
- serum GM-CSF level [6, 8]: not found to have a statistically significant difference
- serum IFNα level [6, 8]: not found to have a statistically significant difference
- serum IFNβ level [6, 8]: not found to have a statistically significant difference
- serum IFNγ level [6, 8]: not found to have a statistically significant difference
- serum IL-12 level [6, 8]: not found to have a statistically significant difference
- serum IL-10 levels [6, 9]: further significantly elevated
- serum IP-10 (CXCL10) levels [6, 9]: significantly reduced
- TNFα production (serum) ([6]; GABA 2 mg/mL vs untreated infected, p<0.001): significantly mitigated
- mice with detectable IFNβ levels ([6]; GABA 2 mg/mL, 1/10 in healthy and infected control groups): 3/10
- mice with high levels of IFNγ ([6]; GABA 2 mg/mL, 3/10 in untreated infected group): 1/10
- median and mean levels of IFNα ([6]; GABA treated vs. untreated infected group, p=0.14): slightly elevated
- serum IL-1β level [6, 10]: slightly reduced
- serum IL-6 level [6, 10]: slightly reduced
- median and mean IFNγ levels ([6]; GABA-treated vs. untreated infected mice, p=0.25): reduced
- serum CCL2 levels ([6]; GABA-treated vs. untreated-infected mice, p=0.07): tending to be lower
- serum CCL5 level ([6]; among HC, SC and GABA groups): No statistically significant difference
- serum CXCL1 level ([6]; among HC, SC and GABA groups): No statistically significant difference

Compound: NCC(CC(=O)O)c1ccc(Cl)cc1 (stereo not drawn) [Baclofen, baclofen]
- body weight loss [1]: did not significantly decrease
- death rate [1]: did not significantly decrease
- disease (illness) scores [1]: slight but significant ability to reduce
- lung coefficient index [1]: did not significantly decrease
